We go through eight compounds from US9526782B2, “Pharmaceutical compositions comprising inhibitors of zinc-ZIP8-MTF1 as active ingredients for preventing or treating a joint disease” (GWANGJU INSTITUTE OF SCIENCE AND TECHNOLOGY, priority 2014, dated 2016).

Like-named read-outs stand apart in the source and are kept apart here.

Test [1] has as its system matrix-degrading enzymes (MMP3, MMP9, MMP12, MMP13, and ADAMTS5). Put plainly: mRNA (qRT-PCR) and protein (Western blotting) levels of matrix-degrading enzymes in chondrocytes. Type of test: cell-based, mouse. The settings on record: for Ad-Mtf1-induced upregulation of matrix-degrading enzymes, effect of the test agent: chondrocytes infected with Ad-Mtf1; for upregulation of MMP3, MMP13, and ADAMTS5 by IL1β, effect of the test agent: chondrocytes treated with IL1β; for inhibitory effects of TPEN on the ZIP8-mediated expression of matrix-degrading enzymes, effect of pre-incubation of TPEN with the metal salt: Ad-Zip8 chondrocytes, TPEN 1 μM pre-incubated with 1 μM metal ion; for expression of matrix-degrading enzymes caused by the substance itself: chondrocytes, metal salts 100 μM (CdCl2 1 μM). The protocol: (§1) Adenoviruses expressing mouse Zip8 (Ad-Zip8) and Mtf1 (Ad-Mtf1) were purchased from Vector Biolabs. Mouse articular chondrocytes were cultured for 2 days, infected with empty virus (Ad-C), Ad-Zip8, or Ad-Mtf1 for 2 hours at the indicated multiplicity of infection (MOI), and cultured for 24 hours, followed by further analyses.
(§2) Total RNA was extracted from primary cultured chondrocytes using the TRI reagent (Molecular Research Center Inc.). For the isolation of RNA from knee joints, cartilage tissues were scraped with a blade to remove cartilage, and RNA was isolated using the TRI reagent and Purelink RNA mini kit (Ambion). The RNA was reverse transcribed, and the resulting cDNA was amplified by PCR.
(§3) Transcript levels were quantified by qRT-PCR. siRNAs targeting Zip8 and Mtf1 were obtained from Dharmacon and transfected using Lipofectamine 2000. Non-targeting (scrambled) siRNA was used as a negative control. Chondrocytes were transfected by incubating for 6 hours with siRNA and Lipofectamine 2000 (Invitrogen), and infected with adenoviruses as described above. Therapeutic antibodies for obstruction of ZIP8 function were purchased from Santa Cruz Biotechnology and MyBioSource Company, and treated in chondrocytes for 24 hours.
Total cell lysates were prepared in lysis buffer (150 mM NaCl, 1% NP-40, 50 mM Tris, 5 mM NaF) and used to detect cellular proteins (ZIP8, MTF1, and ERK). Secreted proteins (MMP3, MMP13, and ADAMTS5) were detected after trichloroacetic acid (TCA) precipitation from 900 μl of serum-free conditioned medium. All lysis buffers contained a cocktail of protease inhibitors and phosphatase inhibitors (Roche).
In general terms: Real-time PCR tracks product formation cycle by cycle.

The target of test [2] is T1, ZIP8 (Mus musculus, UniProt Q91W10).
T1 construct: host or cells: primary mouse articular chondrocytes infected with Ad-Zip8
T1 sequence (Q91W10 20-462): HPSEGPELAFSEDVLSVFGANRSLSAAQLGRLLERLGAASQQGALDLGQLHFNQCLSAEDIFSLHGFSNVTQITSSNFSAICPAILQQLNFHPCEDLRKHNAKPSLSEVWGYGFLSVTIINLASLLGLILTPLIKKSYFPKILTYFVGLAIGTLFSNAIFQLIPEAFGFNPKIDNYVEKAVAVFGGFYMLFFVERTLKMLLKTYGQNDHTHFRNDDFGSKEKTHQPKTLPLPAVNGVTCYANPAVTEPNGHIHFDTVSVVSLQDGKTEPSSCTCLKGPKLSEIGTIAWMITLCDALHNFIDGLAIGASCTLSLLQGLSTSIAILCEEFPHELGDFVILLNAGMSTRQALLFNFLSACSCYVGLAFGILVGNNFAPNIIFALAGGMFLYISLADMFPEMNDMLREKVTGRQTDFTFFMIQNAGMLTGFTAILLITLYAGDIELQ
Briefly: Zn^2+ imaging and quantitation with FluoZin-3 AM in primary cultured articular chondrocytes. Type of test: cell-based. The settings on record: for ZIP8-mediated increase in Zn^2+ influx: chondrocytes infected with Ad-Zip8, with the test agent; for IL1β-caused influx of Zn^2+ in chondrocytes, effect of the test agent: chondrocytes treated with IL1β; for cellular Zn^2+ level, effect of the substance itself: chondrocytes. The protocol: Chondrocytes were maintained as a monolayer in Dulbecco's Modified Eagle's Medium (DMEM) supplemented with 10% fetal bovine serum (FBS) and antibiotics, and cells at culture day 2 were treated as indicated in each experiment.
as §1
Intracellular Zn^2+ was detected using the Zn^2+-selective fluorophore, FluoZin-3 AM (Invitrogen). […] Cells were then washed with Ca^2+- and Mg^2+-free phosphate-buffered saline (PBS) and incubated for an additional 30 minutes at 37° C. Intracellular Zn^2+ images were acquired with a fluorescence microscope, and population-wide fluorescence intensity was measured using a Spectramax Gemini microplate fluorescence reader (Molecular Devices) with excitation at 488 nm, cut-off at 515 nm, and emission at 530 nm.
as §3

The next test addresses T2, MTF1 (Mus musculus, UniProt Q07243).
T2 construct: endogenous in cells; host or cells: primary mouse articular chondrocytes
Put plainly: MTF1 activity reporter gene assay and immunostaining in chondrocytes. The settings on record: for inhibitory effects of TPEN on MTF1 transcriptional activity, effect of pre-incubation of TPEN with the metal salt: Ad-Zip8 chondrocytes, TPEN 1 μM pre-incubated with 1 μM metal ion; for MTF1 transcriptional activity, effect of the substance itself: chondrocytes, reporter gene assay. Type of test: cell-based. The protocol:
The MTF1 reporter gene assay kit was obtained from SABiosciences. Chondrocytes were transfected for 6 hours with a metal response element (MRE) reporter construct and a constitutive Renilla luciferase construct using Lipofectamine 2000 (Invitrogen). Transfected cells were infected with Ad-Mtf1 or Ad-Zip8 for 2 hours or treated with metal ions. Cells were harvested 24 hours after treatment, and firefly luciferase and Renilla luciferase activities were measured using a Dual Luciferase Assay System (Promega). […] MTF1 was detected by immunofluorescence microscopy. Images were acquired using a fluorescence microscope, and at least 200 cells were examined in multiple fields per condition to quantify the percentage of nuclear MTF1-positive cells.
(A reporter such as luciferase makes a cellular process visible.)

The test system of a further test is mouse knee joints. Briefly: Experimental OA induced by IA injection of adenovirus into mouse knee joints, histology and immunostaining. Type of test: in vivo. The settings on record: 0.1 mg/kg body weight. From the text: Male mice (C57BL/6, Col2a1-Zip8 TG, Zip8^+/−, Zip8^fl/fl; Zip8^fl/fl; Col2a1-Cre, Mtf1^+/−, Mtf1^fl/fl, Mtf1^fl/fl; Col2a1-Cre, Mt1^−/−; Mt2^−/−) were used for experimental OA studies. Chondrocyte-specific Zip8 TG (Col2a1-Zip8) mice were generated using the Col2a1 promoter and enhancer. Zip8^+/− mice were obtained from The European Mouse Mutant Archive. The Mtf1 mouse strain used for this research project was created from an ES cell clone generated by the Wellcome Trust Sanger Institute and developed into mice by the KOMP Repository and the Mouse Biology Program at the University of California, Davis. Zip8^+/− and Mtf1^+/− mice were backcrossed with Actb-Flp1 TG mice (The Jackson Laboratory) to generate Zip8fl/fl and Mtf1fl/fl mice, respectively. These mice were then backcrossed with Col2a1-Cre TG mice (The Jackson Laboratory) to generate chondrocyte-specific CKO mice (Zip8^fl/fl; Col2a1-Cre and Mtf1^fl/fl; Col2a1-Cre). Mt1^−/−, Mt2^−/− double-KO mice were obtained from The Jackson Laboratory. […]
Human OA cartilage was frozen, sectioned at 10-μm thickness, and fixed in paraformaldehyde. Sulfate proteoglycan was detected with alcian blue staining. Human ZIP8 was detected by immunostaining. […] Sections were deparaffinized in xylene, hydrated with graded ethanol, and stained with safranin-O. Cartilage destruction was scored by two blinded observers using the OARSI grading system (Glasson et al., 2010). Synovitis was determined by safranin-O and hematoxylin staining, and synovial inflammation (grade 0-3) was scored as described previously (Yang et al., 2010). Osteophyte development was identified by safranin-O staining, and osteophyte maturity was quantified as described previously (Oh et al., 2012). Subchondral bone sclerosis was determined by measuring the thickness of the subchondral bone plate (Zhen et al., 2013). Antibodies used for immunostaining of cartilage sections are as follows: ZIP8 and MTF1 in human cartilage tissue sections were detected by antibodies obtained from Proteintech (20459-1-AP) and Novus (NBP1-86380), respectively. […]

In test [3] the test system is ZIP8. Put plainly: Expression levels of metal ion transporters in chondrocytes treated with IL1β. Type of test: cell-based. The settings on record: primary cultures of mouse articular chondrocytes.
From the text: FIG. 1a represents mRNA levels of metal ion transporters determined by qRT-PCR in articular chondrocytes treated with IL1β (n=10). Insert is Western blotting of ZIP8 in chondrocytes treated with IL1β.
as §2

The mark [4] stands for this setting: chondrocytes infected with Ad-Zip8.

T2 sequence (Q07243 whole entry): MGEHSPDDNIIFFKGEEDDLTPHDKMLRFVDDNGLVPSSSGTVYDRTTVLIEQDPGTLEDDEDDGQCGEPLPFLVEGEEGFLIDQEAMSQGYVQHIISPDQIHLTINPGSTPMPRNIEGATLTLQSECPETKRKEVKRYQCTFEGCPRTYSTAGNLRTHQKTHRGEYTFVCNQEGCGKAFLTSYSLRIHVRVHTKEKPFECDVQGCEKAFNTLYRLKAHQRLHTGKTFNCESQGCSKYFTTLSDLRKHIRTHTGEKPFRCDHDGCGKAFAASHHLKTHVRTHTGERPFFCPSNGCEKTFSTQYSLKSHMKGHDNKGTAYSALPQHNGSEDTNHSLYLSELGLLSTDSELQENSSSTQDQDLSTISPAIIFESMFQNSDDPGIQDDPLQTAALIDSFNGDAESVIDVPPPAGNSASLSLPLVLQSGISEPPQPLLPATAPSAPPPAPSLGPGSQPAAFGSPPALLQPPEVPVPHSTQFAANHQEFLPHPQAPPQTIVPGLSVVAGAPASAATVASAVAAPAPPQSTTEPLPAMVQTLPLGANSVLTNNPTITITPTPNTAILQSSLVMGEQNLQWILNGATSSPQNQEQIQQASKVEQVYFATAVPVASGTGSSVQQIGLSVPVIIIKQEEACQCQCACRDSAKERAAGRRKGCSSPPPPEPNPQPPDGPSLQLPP

`c1ccc(-c2ccccn2)nc1` [2,2-bipyridyl]: in test [1] (setting [4]), the “Ad-Zip8 (ZIP8)-induced upregulation of matrix-degrading enzymes, effect of the test agent” value (from here on “Ad-Zip8 (ZIP8)-induced upregulation”) is “did not affect”.

Regarding `O=C(O)CN(CCN(CC(=O)O)CC(=O)O)CC(=O)O.[Ca]` [CaEDTA, calcium-saturated EDTA], on ZIP8 [2], the “ZIP8-mediated increase in Zn^2+ influx” value was “abolished” and the “IL1β-caused influx of Zn^2+ in chondrocytes, effect of the test agent” value was “blocked”. For the same compound, in test [1], the “Ad-Mtf1-induced upregulation of matrix-degrading enzymes, effect of the test agent” value is given as “abolished”; the “upregulation of MMP3, MMP13, and ADAMTS5 by IL1β, effect of the test agent” value is given as “abolished”. Besides, the “Ad-Zip8 (ZIP8)-induced upregulation” value in test [1] (setting [4]) is given as “blocked”.

Turning to `[Cl][Cd][Cl]` [CdCl2], on MTF1, the “inhibitory effects of TPEN on MTF1 transcriptional activity, effect of pre-incubation of TPEN with the metal salt” value is recorded as “not” and the “MTF1 transcriptional activity, effect of the substance itself” value is “moderate activation”. In test [1], the “inhibitory effects of TPEN on the ZIP8-mediated expression of matrix-degrading enzymes, effect of pre-incubation of TPEN with the metal salt” value was “no significant effects” and the “expression of matrix-degrading enzymes caused by the substance itself” value (“expression … by the substance itself” for short) was “did not cause a marked expression”. In addition, in test [1] (chondrocytes treated with metal ion), the MMP12 expression result is recorded as “modest induction”. Further, the “expression … by the substance itself” value in test [1] (listed as Cd^2+) was “no significant effect”.

Turning to `[Cl][Fe][Cl]` [FeCl2], at MTF1, the “inhibitory effects of TPEN on MTF1 transcriptional activity, effect of pre-incubation of TPEN with the metal salt” value is listed as “not” and the “MTF1 transcriptional activity, effect of the substance itself” value is “no effect”. In test [1], the “inhibitory effects of TPEN on the ZIP8-mediated expression of matrix-degrading enzymes, effect of pre-incubation of TPEN with the metal salt” value is “no significant effects” and the “expression … by the substance itself” value is recorded as “moderate expression”.

Take `[Cl][Mn][Cl]` [MnCl2]: at MTF1, the “inhibitory effects of TPEN on MTF1 transcriptional activity, effect of pre-incubation of TPEN with the metal salt” value is given as “not” and the “MTF1 transcriptional activity, effect of the substance itself” value is reported as “no effect”. Further, in test [1], the “inhibitory effects of TPEN on the ZIP8-mediated expression of matrix-degrading enzymes, effect of pre-incubation of TPEN with the metal salt” value is on record as “no significant effects” and the “expression … by the substance itself” value is on record as “did not cause a marked expression”.

Take `c1ccc(CN(CCN(Cc2ccccn2)Cc2ccccn2)Cc2ccccn2)nc1` [TPEN, N,N,N′,N′-tetrakis (2-pyridylmethyl)ethylenediamine]: on ZIP8 [2], the “ZIP8-mediated increase in Zn^2+ influx” value was “abolished” and the “IL1β-caused influx of Zn^2+ in chondrocytes, effect of the test agent” value is “blocked”. In addition, the “MTF1 transcriptional activity in Ad-Zip8-infected chondrocytes, effect of the test agent” value on MTF1 (800 MOI of Ad-Zip8, TPEN 1 μM) is reported as “inhibitory effects”. Also, in test [1], the “Ad-Mtf1-induced upregulation of matrix-degrading enzymes, effect of the test agent” value was “abolished”; the “upregulation of MMP3, MMP13, and ADAMTS5 by IL1β, effect of the test agent” value is “abolished”. The “Ad-Zip8 (ZIP8)-induced upregulation” value in test [1] (setting [4]) is “blocked”. In addition, in the test with mouse knee joints, the “Ad-Zip8-induced MMP expression, effect of co-injection” value is given as “significantly blocked”; the “Ad-Zip8-induced cartilage destruction, effect of co-injection” value is “significantly blocked”; the “Ad-Zip8-induced synovitis, effect of co-injection” value was “significantly blocked”.

In the case of “IL1β: proinflammatory cytokine that promotes catabolism in arthritic cartilage”, the “cellular Zn^2+ level, effect of the substance itself” value is on record as “caused an influx of Zn^2+” with ZIP8 [2] and “increases” with ZIP8 [2] (listed as IL-1). Further, the ZIP8 expression levels entry in the test with ZIP8 [3] was “markedly increased”.

In the case of mithramycin-A, the “Ad-Zip8 (ZIP8)-induced upregulation” value in test [1] is on record as “significantly attenuated”.
